According to patent publication US20140057841A1, “HUMAN INSULIN AND ANALOG CONJUGATE THEREOF” (Chongqing Fagen Biomedical Inc., priority 2011, published 2014):
Where two headings read alike, the source gives them in different places.

Assays:
[1] = system: Type 1 diabetes model of KunMing mice; experiment: Blood sugar lowering in mice Type 1 diabetes model; type: in vivo; conditions: subcutaneous 0.25 mg/kg, STZ mice; for time the blood sugar lowering effect may sustain: empty stomach blood sugar
Protocol: 70 healthy KunMing male SPF mice (purchased from the Third Military Medical Univ., China) with body weight of 25-30 g were fed with water only and no food for 14 hours, and then subject to 120 mg/kg of rapid intraperitoneal injection of streptozotocin (STZ) solution (4.8 mg/ml) that was prepared with citric acid- trisodium citrate buffer, to establish a Type 1 diabetes model. After the injection, the mice were immediately fed with food and water. After 48 hours of model establishing, blood was sampled from caudal vein, and blood sugar value was detected with glucometer (Bayer's Fast Glucometer) after fasting for 2 hours, wherein a blood sugar value of >11.1 mmol/L indicates successful modeling. […] Groups B, C, and D were respectively subject to subcutaneous administration by a dosage of 0.25 mg/kg, and group A was injected with isovolumetric solvent. Before administration (i.e., 0 hour) and after 1, 2, 6, 10, 15, 18, and 24 hours of administration, blood was sampled from caudal vein for the detection of empty stomach (fasting for 2 hours) blood sugar value. The average blood sugar value was calculated and time activity curve was made (FIG. 4).
The average blood sugar value was calculated and time activity curve was made (FIG. 5).

[2] = system: Type 1 diabetes model of New Zealand albino rabbits; experiment: Blood sugar lowering experiment on Type 1 diabetes model (IDDM) rabbits; type: in vivo; conditions: subcutaneous 0.2 mg/kg; for hypoglycemic activity: rabbit Type 1 diabetes model; for time the blood sugar lowering effect may sustain: tetraoxypyrimidine rabbits, empty stomach blood sugar
Protocol: 40 male New Zealand albino rabbits (purchased from the Third Military Medical Univ., China) with body weight of 2-3 kg were fed with water only and no food for 24 hours, and then subject to 5 ml/kg of ear vein single injection of tetraoxypyrimidine solution (with concentration of 20 mg/ml) to establish models. After the injection, the rabbits were immediately fed with food and water. After 3 days of model establishing, blood was sampled every day from ear vein after fasting for 6 hours, and blood sugar value was detected with glucometer, wherein a blood sugar value of >11.1 mmol/L indicates successful modeling. […] Groups B, C, and D were respectively subject to subcutaneous administration by a dosage of 0.2 mg/kg, and group A was injected with isovolumetric solvent. Before administration (i.e., 0 hour) and after 1, 2, 4, 8, 12, 24, 36, 48, 60, 72, 84, and 96 hours of administration, blood was sampled from ear vein for the detection of empty stomach (fasting for 6 hours) blood sugar value (Fast Glucometer, Bayer). The average blood sugar value was calculated and time activity curve was made (FIG. 6).
The average blood sugar value was calculated and time activity curve was made (FIG. 7).

[3] = system: Beagle dog Type 1 diabetes model; experiment: Blood sugar lowering experiment of DesB30-20 k conjugate on Beagle dog Type 1 diabetes model; type: in vivo, Beagle dogs
Protocol: 20 healthy Beagle dogs (purchased from the Third Military Medical Univ., China) with body weight of 5-8 kg were fed with water only and no food for 24 hours, and then subject to foreleg subcutaneous vein injection of tetraoxypyrimidine solution (200 mg/ml) and STZ solution (120 mg/ml), with respective dosage of 50 mg/kg and 30 mg/kg, to establish Type 1 diabetes models. After the injection, the dogs were immediately fed with food and water. After 72 hours of model establishing, successful modeling was indicated by the signs of polyphagia, polydipsia, polyuria, lose weight, and blood sugar value of >11.1 mmol/L. 12 modeled dogs were randomly divided into 3 groups, 4 for each group (group A, control, group B, administration by 0.05 mg/kg, and group C, administration by 0.10 mg/kg), and subject to subcutaneous administration for one time. After 0, 2, 6, 12, 18, 24, 36, 48, 72, 96, and 120 hours of administration, blood was sampled from hindlimb vein for the detection of empty stomach (fasting for 6 hours) blood sugar value (GOD-POD method). The average blood sugar value was calculated and single administration time activity curve was made (FIG. 8). […] Then, the model animals were tested with multiple times of subcutaneous administration, with an interval of 72 hours (with a dosage of 0.05 mg/kg, 0.10 mg/kg, or isovolumetric solvent) for 6 times. From Day 1 to Day 21 after the administration, empty stomach blood sugar value was detected every three days, and blood was sampled after the last administration for pharmacokinetics experiments. […] The durations of hypoglycemic activity for single and multiple administrations are basicly the same, i.e., 72 hours. During the multiple administrations, the empty stomach blood sugar value of animals in administration groups were kept in average with about 5 mmol/L, whereas the empty stomach blood sugar value of animals in control group were kept in average with about 25 mmol/L.

[4] = in human body; cited from earlier work
[5] = in animals; cited from earlier work

| Substance | hypoglycemic activity [1] | time the blood sugar lowering effect may sustain [1] | hypoglycemic activity [2] | time the blood sugar lowering effect may sustain [2] | also measured |
| --- | --- | --- | --- | --- | --- |
| DesB30-5K: DesB30 recombinant human insulin coupled at the ε-amino group of Lys B29 to 5K mPEG-SPA via amide bond | significant hypoglycemic activity | about 8 hours | significant hypoglycemic activity | about 15 hours |  |
| DesB30-10K: DesB30 recombinant human insulin coupled at the ε-amino group of Lys B29 to 10K mPEG-SPA via amide bond | significant hypoglycemic activity | about 12 hours | significant hypoglycemic activity | about 30 hours |  |
| DesB30-20K: DesB30 recombinant human insulin coupled at the ε-amino group of Lys B29 to 20K mPEG-SPA via amide bond | significant hypoglycemic activity | about 18 hours | significant hypoglycemic activity | about 55 hours | hypoglycemic activity ([3]; Beagle dogs Type 1 diabetes model, 0.05 and 0.10 mg/kg): significant hypoglycemic activity; average empty stomach blood sugar value during multiple administrations ([3]; administration groups (0.05 or 0.10 mg/kg s.c., every 72 hours, 6 times), control about 25 mmol/L): about 5 mmol/L; time blood sugar is effectively lowered ([3]; single subcutaneous administration, 0.10 mg/kg): 72 h; duration of hypoglycemic activity for single and multiple administrations ([3]; single, and multiple subcutaneous administrations (interval 72 hours, 6 times)): 72 h |
| Ins-5K: recombinant human insulin conjugate with 5K mPEG-SPA at Lys B29, prepared as in Example 2 |  | about 8 hours |  | about 15 hours |  |
| Ins-10K: recombinant human insulin conjugate with 10K mPEG-SPA at Lys B29, prepared as in Example 3 |  | about 12 hours |  | about 35 hours |  |
| Ins-20K: recombinant human insulin conjugate with 20K mPEG-SPA at Lys B29, prepared as in Example 4 |  | about 18 hours |  | about 55 hours |  |
| insulin detemir |  |  |  |  | duration of activity [4]: 24 h; duration of activity [5]: 12 h |
